Measured values: paper PMC3238229 (Genetics, Selection, Evolution : GSE, 2003)
Like-named read-outs stand apart in the source and are kept apart here. Ends that are not written are not given here.

Tests used:
[1] = test system: peptide-specific T-lymphocytes from BMC of a cow homozygous for BoLA-DRB3*2703; format: cell-based, Holstein cow
BoLA-DRB3*2703 = format: binding, bovine
[2] = test system: IFN-γ production by peptide-specific T-lymphocytes; format: cell-based, Holstein cow
[3] = test system: CD4+ and CD8+ peptide-specific T-lymphocytes from BMC of a cow homozygous for BoLA-DRB3*2703; format: cell-based, Holstein cow
[4] = biological target: BoLA-DRB3*2703 class II molecule (bovine); test: competitive peptide binding to pu
[5] = biological target: BoLA-DRB3*2703 class II molecule (bovine); test: binding of labelled peptide to pu
[6] = biological target: BoLA-DRB3*2703 class II molecule (bovine)

Row | Molecule | DNA synthesis of T-cells compared to naive cell cultures (in words) [1] | Binding affinity (designated high or low) (BoLA-DRB3*2703) | IC50 [4] | further results
1 | KISQAVHAAHA [OVA332] | not significantly different | Low | – | IC50 (BoLA-DRB3*2703; read-out: concentration required to inhibit BoLA class II-self-peptide binding by 50% (IC50)): > 640 µM
2 | SSAESLKISQAV [OVA327] | significantly lower | Low | – | –
3 | QAVHAAHAEINE [OVA336] | not significantly different | Low | – | IFN-γ in culture supernatant compared to the naive cell culture [2]: less; IFN-γ in culture supernatant compared to the naive cell culture ([2]; 18 h): less; cell divisions of CD8+lo T-lymphocytes compared to the naive lymphocyte culture [3]: more cell divisions
4 | SSAESLKISQAV [OVA327[316-327]] | – | – | > 320 µM | –
5 | ISQAVHAAHAEIN [OVA335[323-335]] | – | – | 26.9 µM | –
6 | DVNEFRAVTPLGRPDAE (not fully specified) [Biotinylated self-peptide DQ] | – | – | – | other [5]: 58.2 pixels
7 | SIINNYYMQQYQNSM (not fully specified) [FMD-VP4[20-34]] | – | – | – | IC50 [6]: 46.5 µM
8 | DVNEFRAVTPLGRPDAE [Self-peptide DQ (unlabelled competitor)] | – | – | 16.1 µM | –
9 | ISQAVHAAHAEINEAGR [OVA339[323-339]] | – | – | 72.2 µM | –
10 | QAVHAAHAEINE [OVA336[325-336]] | – | – | > 320 µM | –
